Data from the supplement of paper PMC10883282.

Tests used:
Test in all cases: standardised AUC of viability dose-response curve (72 h) (fraction (0-1)); higher = less growth inhibition (more resistant)
RD = tested on: RD
How it was run: (§1)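 Viability of sarcoma cell lines was read with ATPLite after 72 h of triplicate treatment in 384-well plates with 2.5 µl of compound from a compound-plate series of 10 mM to 0.0002 mM. Viability was scaled 1 (full) to 0 (none) and fitted with a four-parameter log-logistic model for each drug and cell line. The reported standardised area under the dose-response curve in log-dose space comes from a modified drexplorer computeAUC, where 1 is no response and 0 is full response.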

KHOS-NP = tested on: KHOS-NP
How it was run: as §1

HT1080 = tested on: HT1080
How it was run: as §1

KHOS-240S = tested on: KHOS-240S
How it was run: as §1

VA-ES-BJ = tested on: VA-ES-BJ
How it was run: as §1

HS729 = tested on: HS729
How it was run: as §1

A204 = tested on: A204
How it was run: as §1

RD-ES = tested on: RD-ES
How it was run: as §1

SK-ES-1 = tested on: SK-ES-1
How it was run: as §1

SW872 = tested on: SW872
How it was run: as §1

SW982 = tested on: SW982
How it was run: as §1

SW684 = tested on: SW684
How it was run: as §1

MES-SA = tested on: MES-SA
How it was run: as §1

SYO-1 = tested on: SYO-1
How it was run: as §1

SK-LMS-1 = tested on: SK-LMS-1
How it was run: as §1

G401 = tested on: G401
How it was run: as §1

SW1353 = tested on: SW1353
How it was run: as §1

Row | Compound | standardised AUC (RD) | standardised AUC (KHOS-NP) | standardised AUC (HT1080) | standardised AUC (KHOS-240S) | standardised AUC (VA-ES-BJ) | standardised AUC (HS729) | standardised AUC (A204) | standardised AUC (RD-ES) | standardised AUC (SK-ES-1) | standardised AUC (SW872) | standardised AUC (SW982) | standardised AUC (SW684) | standardised AUC (MES-SA) | standardised AUC (SYO-1) | standardised AUC (SK-LMS-1) | standardised AUC (G401) | standardised AUC (SW1353)
1 | COc1c(OCCCN2CCOCC2)ccc2c1N=C(NC(=O)c1cnc(N)nc1)N1CCN=C21 [COPANLISIB] | 0.556 | 0.802 | 0.83 | 0.693 | 0.568 | 0.583 | 0.516 | 0.472 | 0.483 | 0.541 | 0.609 | 0.569 | 0.474 | 0.655 | 0.617 | 0.654 | 0.675
2 | Cn1cnc2c(F)c(Nc3ccc(Br)cc3F)c(C(=O)NOCCO)cc21 [BINIMETINIB] | 0.736 | 0.773 | 0.756 | 0.89 | 0.895 | 0.887 | 0.936 | 0.978 | 0.933 | 0.741 | 0.89 | 0.917 | 0.905 | 0.922 | 0.727 | 0.869 | 0.838
3 | CC(=O)Nc1cccc(-n2c(=O)n(C3CC3)c(=O)c3c(Nc4ccc(I)cc4F)n(C)c(=O)c(C)c32)c1 [TRAMETINIB] | 0.65 | 0.523 | 0.577 | 0.783 | 0.756 | 0.761 | 0.782 | 0.989 | 0.958 | 0.619 | 0.897 | 0.714 | 0.827 | 0.825 | 0.533 | 0.651 | 0.709
4 | CCN1CCN(Cc2ccc(Nc3ncc(F)c(-c4cc(F)c5nc(C)n(C(C)C)c5c4)n3)nc2)CC1 [ABEMACICLIB] | 0.97 | 0.95 | 0.993 | 0.856 | 0.804 | 0.966 | 0.746 | 0.734 | 0.631 | 0.872 | 0.734 | 0.901 | 0.805 | 0.715 | 0.938 | 0.855 | 0.88
5 | Cc1cnc(Nc2ccc(OCCN3CCCC3)cc2)nc1Nc1cccc(S(=O)(=O)NC(C)(C)C)c1 [FEDRATINIB] | 0.763 | 0.886 | 0.86 | 0.766 | 0.768 | 0.756 | 0.746 | 0.733 | 0.691 | 0.754 | 0.677 | 0.825 | 0.756 | 0.685 | 0.847 | 0.784 | 0.779
6 | CCc1cc2c(cc1N1CCC(N3CCOCC3)CC1)C(C)(C)c1[nH]c3cc(C#N)ccc3c1C2=O [ALECTINIB] | 0.99 | 0.989 | 0.991 | 0.967 | 0.949 | 1 | 1 | 1 | 0.993 | 1 | 0.989 | 1 | 1 | 1 | 0.985 | 0.997 | 1
7 | C=CC(=O)N1CCC[C@@H](n2nc(-c3ccc(Oc4ccccc4)cc3)c3c(N)ncnc32)C1 [IBRUTINIB] | 0.997 | 0.966 | 1 | 0.954 | 0.995 | 0.941 | 0.967 | 0.994 | 0.991 | 0.934 | 0.992 | 0.997 | 0.948 | 0.892 | 0.978 | 0.973 | 0.85
8 | COc1cccc2c1C(=O)c1c(O)c3c(c(O)c1C2=O)C[C@@](O)(C(=O)CO)C[C@@H]3O[C@H]1C[C@H](N)[C@H](O)[C@H](C)O1 [DOXORUBICIN] | 0.609 | 0.694 | 0.6 | 0.588 | 0.574 | 0.638 | 0.532 | 0.472 | 0.439 | 0.655 | 0.537 | 0.796 | 0.496 | 0.47 | 0.672 | 0.577 | 0.669
